# In US10111877B2, “Modulators of androgen synthesis” (Tangent Reprofiling Limited, priority 2012, dated 2018):
# Like-named read-outs stand apart in the source and are kept apart here.
# How the values were obtained:
# HSD10 = target: T1, HSD10 (Homo sapiens, UniProt Q99714); experiment: HSD10 Enzyme Inhibition Assay; assay type: biochemical; conditions: 50 μM drug
# T1 construct: endogenous in cells; host or cells: PC3 cells
# T1 sequence (Q99714 1-261): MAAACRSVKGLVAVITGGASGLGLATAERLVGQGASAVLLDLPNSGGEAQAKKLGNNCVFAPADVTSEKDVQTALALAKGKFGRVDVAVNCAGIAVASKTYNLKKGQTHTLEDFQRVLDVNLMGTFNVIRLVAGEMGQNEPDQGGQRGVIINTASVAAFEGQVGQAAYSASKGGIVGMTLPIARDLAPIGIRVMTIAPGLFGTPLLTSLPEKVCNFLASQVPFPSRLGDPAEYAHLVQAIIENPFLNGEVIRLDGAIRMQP
# Protocol: An HSD10 inhibition assay was performed to determine the effect of several anti-psychotics on enzyme activity.
# (§1) PC3 cells are from a cell line derived from a hormone refractory prostate cancer and are known to overexpress HSD10. […] Cells line tests were carried out in presence and absence of testosterone for comparison. After incubation in the drug treatment for 96 hours at 37° C., 5% CO2, the supernatant was removed from all wells of cells, and cells washed with 200 μL PBS.
# (§2) After removal of the PBS, cell number was determined using a lysed cell LDH assay (CytoTox 96 Non-radioactive cytotoxicity assay (LDH Assay); Promega, Co., Madison Wis.). Cells were lysed with 0.9% Triton-X in PBS for 2 hours at 37° C., 5% CO2 and 50 μL of this cell lysate was transferred to a fresh 96 well plate. About 50 μL of CytoTox 96 assay reagent was added to the transferred cell lysate and this mixture was incubated at room temperature in the dark for 20 minutes. After the addition of 50 μL stop reagent, the optical absorbance was determined for each incubated mixture at 492 nm. […] The mean and standard error was calculated from at least 3 wells.
# PC3 cells = experiment: Cell growth inhibition, lysed cell LDH assay, prostate cancer cell line; assay type: cell-based
# Protocol: To determine whether Risperidone could be effective in inhibiting growth of cancer cells overexpressing HSD10, a lysed cell LDH assay was conducted using cells from a PC3 cell line.
# as §1, §2
# To determine the optimal concentration of Risperidone and CLA necessary to inhibit cell growth, a lysed cell LDH assay was conducted using various concentration of Risperidone and CLA. PC3 cells were cultured and a lysed cell LDH assay was conducted as described above, except that the various drug treatments evaluated contained either 0 μM, 12.5 μM, 25 μM, or 50 μM Risperidone in combination with 0 μM, 6.25 μM, 12.5 μM, 25 μM, 50 μM, or 100 μM CLA (see Table 3).
# as §2, with “PBS from the cell cultures described above,” for “PBS,”, “assay.” for “assay (CytoTox 96 Non-radioactive cytotoxicity assay (LDH Assay); Promega, Co., Madison Wis.).”
# A549 cells = experiment: Cell growth inhibition, lysed cell LDH assay, lung cancer cell line; assay type: cell-based
# Protocol: To determine whether Risperidone alone, or in combination with CLA could inhibit cell growth of cells taken from a lung cancer cell line overexpressing HSD10, A549 cells were seeded at a density of 2,000 cells per well in a 96 well plate, and incubated at 37° C., 5% CO2 for 48 hours in standard growth media (DMEM nutrient media, 10% Fetal Calf Serum, 2 mM L-Glutamine). The media was then removed by pipette and replaced with the appropriate drug treatment as follows: 50 μM Risperidone in A459 treatment media (DMEM nutrient media, 125 uM fatty acid free BSA, 2 mM L-Glutamine); 50 μM CLA in A459 treatment media; 50 μM Risperidone and 50 μM CLA in A459 treatment media; 50 μM Risperidone and 1 μM Testosterone in A459 treatment media; 50 μM Risperidone, 50 μM CLA, and 1 μM Testosterone in A459 treatment media. After incubation in the drug treatment for 96 hours at 37° C., 5% CO2, the supernatant was removed from all wells of cells, and cells washed with 200 μL PBS.
# After removal of the PBS from the cell cultures described above, cell number was determined using a lysed cell LDH assay. Cells were lysed with 0.9% Triton-X in PBS for 2 hours at 37° C., 5% CO2 and 50 μL of this cell lysate was transferred to a fresh 96 well plate. About 50 μL of CytoTox 96 assay reagent was added to the transferred cell lysate and this mixture was incubated at room temperature in the dark for 20 minutes. After the addition of 50 μL stop reagent, the optical absorbance was determined for each incubated mixture at 492 nm. The percentage cell number was calculated by normalizing the experimental counts, where 100% is set to cells receiving no drug treatment, and 0% is set to readings from wells containing no cells. The mean and standard error was calculated from at least 3 wells.
# MCF7 cells = experiment: Cell growth inhibition, lysed cell LDH assay, breast cancer cell line; assay type: cell-based
# Protocol: (§3) To determine whether Risperidone could be effective in inhibiting growth of cancer cells overexpressing HSD10, a lysed cell LDH assay was conducted using cells taken from a prostate cancer cell line, a lung cancer cell line, a breast cancer cell line, an ovarian cancer cell line, each of which was known to overexpress HSD10, and a non-cancerous cell line.
# (§4) After incubation in the drug treatment for 96 hours at 37° C., 5% CO2, the supernatant was removed from all wells of cells, and cells washed with 200 μL PBS.
# as §2, with “PBS from the cell cultures described above,” for “PBS,”, “assay.” for “assay (CytoTox 96 Non-radioactive cytotoxicity assay (LDH Assay); Promega, Co., Madison Wis.).”
# OVCAR-3 cells = experiment: Cell growth inhibition, lysed cell LDH assay, ovarian cancer cell line; assay type: cell-based
# Protocol: as §3, §4
# as §2, with “PBS from the cell cultures described above,” for “PBS,”, “assay.” for “assay (CytoTox 96 Non-radioactive cytotoxicity assay (LDH Assay); Promega, Co., Madison Wis.).”
# VERO cells = experiment: Cell growth inhibition, lysed cell LDH assay, non-cancerous cell line; assay type: cell-based
# Protocol: as §3, §4
# as §2, with “PBS from the cell cultures described above,” for “PBS,”, “assay.” for “assay (CytoTox 96 Non-radioactive cytotoxicity assay (LDH Assay); Promega, Co., Madison Wis.).”
# BxPC-3 cells = experiment: Resazurin-based cell viability assay, pancreatic cancer cell line; conditions: Homo sapiens, BXPC-3, read-out: growth inhibition of Bx-PC3 cells
# Protocol: To determine whether Risperidone alone, or in combination with CLA could inhibit cell growth of cells taken from a pancreatic cancer cell line overexpressing HSD10, a resazurin-based cell viability assay was conducted on Bx-PC3 cells.
# BxPC-3 cells are from a cell line derived from a human pancreatic adenocarcinoma and are known to overexpress HSD10. BxPC-3 cells were seeded at a density of 4,000 cells per well in a 384 well plate, and incubated at 37° C., 5% CO2 for 24 hours in standard growth media (RPMI nutrient media, 5% heat-inactivated Fetal Calf Serum, 2 mM L-Glutamine). The media was then removed by pipette and replaced with 50 μL BxPC-3 treatment media comprising 125 μM fatty acid-free BSA, 2 mM L-Glutamine and one of the following drug treatments: 0.1 μM, 2 μM, or 50 μM Risperidone; 0.1 μM, 2 μM, or 50 μM CLA; or 0.1 μM, 2 μM, or 50 μM of Risperidone and CLA (in equimolar amounts). After incubation in the drug treatment for 72 hours at 37° C., 5% CO2, viable cell number was determined using a resazurin-based cell viability assay (PRESTOBLUE®; Invitrogen, Carlsbad, Calif.). To each well, 7 μL of PRESTOBLUE® reagent was added and the plates incubated for 60 minutes at 37° C., 5% CO2. After incubation, the fluorescence intensity of each well was determined using a microplate reader by excitation and 570 nm and recording emission at 600 nm. The percentage of viable cell number was calculated by normalizing the experimental fluorescence intensity, where 100% is set to cells receiving no drug treatment (cells metabolizing at optimal rate), and 0% is set to readings from cells treated with Paclitaxel (cells not metabolizing at all due to their destruction by anti-cancer drug). A value under 50% could be considered a useful indication of potential efficacy.
# PC-3M-luc cells = experiment: Orthotopic prostate tumor mouse xenograft model; conditions: single drug
# Protocol: Immunodeficeint male mice (athymic nude mice) were acclimated to the laboratory for at least one week prior to implantation of tumor. PC-3M-luc cells obtained directly from in vitro culture were then injected into the prostate on Day 0. Animals were divided into six groups of 12 mice each. Primary tumor size and metastases were assessed by bioluminescence measurements on day 6, 13, 20, 27, 34, and 40. On day 7 a five week treatment regime was initiated. Both individual drug and high and low dose combination were examined by administering the drugs twice daily on an individual body weight basis using a dose escalation protocol (Table 7). If tumors grew above a pre-determined level, or mice lost more than 10% of bodyweight, they were culled. The primary tumor was excised, weighed and measured. Individual organs were imaged to assess metastatic burden.
# [1] = 50 μM Risperidone and/or 50 μM CLA, 1 μM Testosterone (T) where added, 96 hours
compound,measurement,setting,value
"Cc1nc2n(c(=O)c1CCN1CCC(c3noc4cc(F)ccc34)CC1)CCCC2 [Risperidone, 3-[2-[4-(6-fluoro-1,2-benzoxazol-3-yl)piperidin-1-yl]ethyl]-2-methyl-6,7,8,9-tetrahydropyrido[1,2-a]pyrimidin-4-one]",Oxidative Activity Rate,HSD10,1.0 µM/min
same,Reductive Activity Rate,HSD10,3.3 µM/min
same,inhibition at 50 µM,HSD10; read-out: Oxidative Activity Drug Inhibition,88%
same,inhibition at 50 µM,HSD10; read-out: Reductive Activity Drug Inhibition,63%
same,Percentage of Lysed Cells,"PC3 cells; 12.5 μM Risperidone, 0 μM CLA (Table 4)",81 ± 3.6%
same,Percentage of Lysed Cells,"PC3 cells; 12.5 μM of each drug, 96 hours, 100% = no drug treatment (Table 3)",102 ± 5.4%
same,Percentage of Lysed Cells,"PC3 cells; 25 μM Risperidone, 0 μM CLA (Table 4)",73 ± 2.2%
same,Percentage of Lysed Cells,"PC3 cells; 25 μM of each drug, 96 hours, 100% = no drug treatment (Table 3)",93 ± 0.51%
same,Percentage of Lysed Cells,"PC3 cells; 50 μM Risperidone, 0 μM CLA (Table 4)",79 ± 0.7%
same,Percentage of Lysed Cells,"PC3 cells; 50 μM of each drug, 96 hours, 100% = no drug treatment (Table 3)",52 ± 0.22%
same,inhibition at 50 µM,"PC3 cells; Homo sapiens, PC-3, 50 μM",~50%
same,Percentage of Lysed Cells,"PC3 cells; PC3, 50 μM Risperidone and/or 50 μM CLA, 1 μM Testosterone (T) where added, 96 hours (Table 5)",52 ± 1.7%
same,growth inhibition of PC3 cells,PC3 cells; either 25 μM or 50 μM Risperidone alone (Table 4 experiment),20-30%
same,Percentage of Lysed Cells,"A549 cells; A549, 50 μM Risperidone and/or 50 μM CLA, 1 μM Testosterone (T) where added, 96 hours",38 ± 1.9%
same,inhibition at 50 µM,"A549 cells; Homo sapiens, A549, read-out: growth inhibition of A549 cells",> 60%
same,Percentage of Lysed Cells,MCF7 cells; [1],35 ± 2.4%
same,inhibition at 50 µM,"MCF7 cells; Homo sapiens, 50 μM",~65%
same,Percentage of Lysed Cells,OVCAR-3 cells; [1],64 ± 0.4%
same,inhibition at 50 µM,"OVCAR-3 cells; Homo sapiens, 50 μM",~35%
same,effect on growth of cells from the non-cancerous cell line VERO,VERO cells; 50 μM,neither Risperidone nor CLA had any measurable effect
same,Percentage of Lysed Cells,"VERO cells; VERO, 50 μM Risperidone and/or 50 μM CLA, 1 μM Testosterone (T) where added, 96 hours",94 ± 1.7%
same,inhibition at 50 µM,BxPC-3 cells,~60%
same,body weight throughout the study,PC-3M-luc cells; by Day 40,maintained a constant weight
same,animal loss,PC-3M-luc cells; by day 34,about 10%
same,Tumor Growth Inhibition,"PC-3M-luc cells; calculated on Day 34, dosing per Table 7",16%
same,Animal Survival (overall survivorship),"PC-3M-luc cells; day 40, dosing per Table 7",33%
